{"source": "patent US20200372978A1", "about": "(priority 2019, published 2020)", "origin": "cited, not measured here", "target": "T1, PPARγ (Homo sapiens, UniProt P37231)", "T1 sequence (P37231 1-505)": "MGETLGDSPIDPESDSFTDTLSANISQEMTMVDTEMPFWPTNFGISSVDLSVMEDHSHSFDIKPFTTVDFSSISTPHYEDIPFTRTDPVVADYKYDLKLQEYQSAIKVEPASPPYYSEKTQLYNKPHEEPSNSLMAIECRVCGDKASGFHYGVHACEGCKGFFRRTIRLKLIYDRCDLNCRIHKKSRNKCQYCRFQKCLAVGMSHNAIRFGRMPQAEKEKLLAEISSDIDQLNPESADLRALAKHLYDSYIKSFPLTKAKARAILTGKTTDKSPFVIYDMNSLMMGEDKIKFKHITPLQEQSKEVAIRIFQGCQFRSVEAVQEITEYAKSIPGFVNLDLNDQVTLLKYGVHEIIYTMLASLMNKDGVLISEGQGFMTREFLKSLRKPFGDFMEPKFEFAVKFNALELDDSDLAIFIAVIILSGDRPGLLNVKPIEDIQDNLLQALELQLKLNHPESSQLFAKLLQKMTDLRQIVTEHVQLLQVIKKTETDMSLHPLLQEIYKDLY", "details": "of the maximum effect of ROSI", "data": [{"smiles": "CC(C)COC(=O)c1ccccc1C(=O)OCC(C)C", "note": "[DiBP]", "values": [{"measurement": "maximum effect", "value": 25, "unit": "%"}]}]}
